Data taken from US8663616B2, “Enzymatic peracid generation for use in oral care products” (E I du Pont de Nemours and Company, priority 2010, dated 2014).

Columns and labels:
[1] = Peracetic acid vs hydrogen peroxide bleaching of coffee/tea stained bovine enamel (whiteness index); details: for ΔWI: 0 to 61 min; for Whiteness Index 0 min: before exposure
From the text: This example describes the use of peracetic acid to achieve a bleaching effect on model stained enamel surfaces. Bovine enamel incisors were obtained from SE Dental (Baton Rouge, La.). Teeth were sectioned and cut into enamel slabs approximately 7 mm on each side using a DREMEL® rotary saw (Robert Bosch Power Tool Corporation; Chicago, Ill.) with a diamond blade. The enamel slabs were cleaned and lightly polished to remove surface debris. The enamel was pretreated with a mixture of coffee and tea for 1-5 days in order to stain to a color similar to human stained teeth.
Each enamel block was hydrated in water for at least 1 hr prior to use. Color measurements for the substrate were obtained prior to exposure to test solutions. Solutions of peracetic acid were prepared from a 32% stock in 500 mM sodium phosphate buffer, pH 7.2. A solution of 2.5% H2O2 was also prepared in the same buffer. Multiple enamel blocks were exposed to each solution for 1 min followed by additional exposures of 5 min, 10 min, 15 min and 30 min. For each treatment, a fresh solution of peracetic acid and hydrogen peroxide was prepared from the stock solutions. After each treatment the enamel blocks were rinsed with water and measured with a Konica-Minolta 2600d spectrophotometer.
(§1) Whiteness index (WI) is defined by the International Commission on Illumination (CIE) and described in ASTM method E313-05 and calculated for D65/10 incident light as: WI=Y+800*(0.3138−x)+1700*(0.3310−y) Where Y, x, and y are the luminance factor and the chromaticity coordinates respectively of the enamel substrate.

[2] = One-step bleaching of stained bovine enamel with perhydrolase system (Example 12)
From the text: as §1
(§2) The purpose of this example is to show the tooth bleaching effect of enzymatic generated peracetic acid in a one-step application and compare to the performance achieved with chemically derived peracetic acid. Two methods were developed to use a perhydrolytic enzyme (CE-7 perhydrolase) system to achieve the target level of tooth bleaching. The first method (referred to herein as the “one-step approach”) comprises combining different amounts of at least one CE-7 perhydrolase with triacetin (an example of a suitable ester substrate) and hydrogen peroxide to generate peracetic acid using model stained enamel substrates. Bovine enamel incisors were prepared as indicated in Example 1. Stained bovine enamel blocks were hydrated in water at least 1 hr prior to use to stabilize the color of the substrate. The color for each enamel block was measured after hydration prior to the start of the experiment. Three enamel samples were treated for each solution type. The solutions used were a buffer only control, 2.5% H2O2, 1% peracetic acid, a perhydrolase composition including 10 μM EZ-1 (C277S; SEQ ID NO: 424), 100 mM triacetin and 250 mM H2O2 and a no enzyme control of 100 mM triacetin and 250 mM H2O2. All solutions were prepared in 500 mM sodium phosphate buffer, pH 7.2. The high buffer strength was necessary to maintain the 1% peracetic acid solution at neutral pH. All solutions were freshly prepared for each treatment point. The enzyme-triacetin-H2O2 combination and triacetin-H2O2 combination was mixed immediately before enamel exposure. After each treatment step, each enamel block was rinsed with water and a color measurement was obtained. A total treatment time of 61 min was used with durations of exposure of 1 min, 5 min, 10 min, 15 min and 30 min. The concentration of peracetic acid in solution after the 1 min, 10 min and 30 min treatments was evaluated by colorimetric detection of ABTS oxidation.

[3] = One-step bleaching of stained bovine enamel with targeted perhydrolase (Example 13); details: 0.1% PAA
Method: as §1
(§3) Bovine enamel incisors were prepared as indicated in Example 1. Stained bovine enamel blocks were hydrated in water at least 1 h prior to use to stabilize the color of the substrate. The color for each enamel block was measured after hydration prior to the start of the experiment. Two enamel samples were treated for each solution type. The solutions used were a buffer only control, 0.1% Peracetic Acid, a perhydrolase composition including 0.52 μM EZ-7 (C277S with enamel binding domain; SEQ ID NO: 429), 100 mM triacetin and 32.6 mM H2O2. All solutions were prepared in 100 mM sodium phosphate buffer, pH 7.2. All solutions were freshly prepared for each treatment point. The enzyme-triacetin-H2O2 combination was mixed immediately before enamel exposure. After each treatment step, each enamel block was rinsed with water and a color measurement was obtained. A treatment time of 30 min was repeated 4 times for each set of enamel substrates. The concentration of peracetic acid in solution after a 30 min treatment was evaluated by colorimetric detection of ABTS oxidation.

[4] = Peracetic acid in treatment solution by ABTS (Example 13); format: biochemical; details: after 30 min treatment
Method: (§4) Determination of the peracetic acid (PAA) concentration in the reaction mixtures by a colorimetric method was performed according to the method described by Dinu et. al. (supra). A reagent solution of 1 mM 2,2′-azino-bis(3-ethylbenzothiazoline)-6-sulfonate (ABTS), 50 μM potassium iodide in 125 mM potassium citrate buffer at pH 5.0 was prepared. […] The solution was analyzed for absorbance at 405 nm using a Microplate reader. A comparison of relative amounts of peracetic acid in solution was determined by comparing absorbance values directly.
as §3

[5] = Peracetic acid in treatment solution by ABTS absorbance (Example 12); format: biochemical; details: 1:100 dilution into ABTS reagent
From the text: as §2, §4

Structure (SMILES): CC(=O)OO [PAA, peracetic acid]
- ΔWI ([1]; Table 1, 2.5% H2O2 or 0.5% PAA): 90.8
- Whiteness Index 1 min ([1]; Table 1, 2.5% H2O2 or 0.5% PAA, cumulative exposure 1 min): −111.6
- Whiteness Index 6 min ([1]; Table 1, 2.5% H2O2 or 0.5% PAA, cumulative exposure 6 min): −80.7
- Whiteness Index 16 min ([1]; Table 1, 2.5% H2O2 or 0.5% PAA, cumulative exposure 16 min): −56.5
- Whiteness Index 31 min ([1]; Table 1, 2.5% H2O2 or 0.5% PAA, cumulative exposure 31 min): −44.5
- Whiteness Index 61 min ([1]; Table 1, 2.5% H2O2 or 0.5% PAA, cumulative exposure 61 min): −38.3
- Whiteness Index 0 min ([1]; Table 1, 2.5% H2O2 or 0.5% PAA, 500 mM sodium phosphate pH 7.2): −129.1
- Whiteness Index 1 min ([1]; Table 2, 0.05% PAA): −97.1
- Whiteness Index 6 min ([1]; Table 2, 0.05% PAA): −93.1
- Whiteness Index 16 min ([1]; Table 2, 0.05% PAA): −70.1
- Whiteness Index 31 min ([1]; Table 2, 0.05% PAA): −59.0
- Whiteness Index 61 min ([1]; Table 2, 0.05% PAA): −34.7
- ΔWI ([1]; Table 2, 0.05% PAA): 68.7
- Whiteness Index 0 min ([1]; Table 2, 0.05% PAA): −103.4
- Whiteness Index 1 min ([1]; Table 2, 0.2% PAA): −85.5
- Whiteness Index 6 min ([1]; Table 2, 0.2% PAA): −67.0
- Whiteness Index 16 min ([1]; Table 2, 0.2% PAA): −47.5
- Whiteness Index 31 min ([1]; Table 2, 0.2% PAA): −31.7
- Whiteness Index 61 min ([1]; Table 2, 0.2% PAA): −16.2
- ΔWI ([1]; Table 2, 0.2% PAA): 74.4
- Whiteness Index 0 min ([1]; Table 2, 0.2% PAA): −90.6
- Whiteness Index 1 min ([1]; Table 2, 0.5% PAA): −86.6
- Whiteness Index 6 min ([1]; Table 2, 0.5% PAA): −64.1
- Whiteness Index 16 min ([1]; Table 2, 0.5% PAA): −46.4
- Whiteness Index 31 min ([1]; Table 2, 0.5% PAA): −32.7
- Whiteness Index 61 min ([1]; Table 2, 0.5% PAA): −24.7
- ΔWI ([1]; Table 2, 0.5% PAA): 72.8
- Whiteness Index 0 min ([1]; Table 2, 0.5% PAA): −97.5
- Whiteness Index 1 min ([1]; Table 2, 1% PAA): −89.3
- Whiteness Index 16 min ([1]; Table 2, 1% PAA): −36.0
- Whiteness Index 31 min ([1]; Table 2, 1% PAA): −20.6
- Whiteness Index 61 min ([1]; Table 2, 1% PAA): −5.1
- ΔWI ([1]; Table 2, 1% PAA): 97.7
- Whiteness Index 0 min ([1]; Table 2, 1% PAA): −102.8
- bleaching of stained enamel (in words) ([1]; compared to buffer and hydrogen peroxide controls): effective bleaching agent
- Whiteness Index 0 min ([2]; before treatment, 2.5% H2O2, 100 mM triacetin/250 mM H2O2, 1% PAA, 10 μM EZ-1/100 mM triacetin/250 mM H2O2, pH 7.2): −145.7
- ΔWI ([2]; one-step, 0 to 61 min): 86.3
- Whiteness Index 1 min ([2]; one-step, cumulative treatment 1 min): −119.6
- Whiteness Index 6 min ([2]; one-step, cumulative treatment 6 min): −73.4
- Whiteness Index 16 min ([2]; one-step, cumulative treatment 16 min): −62.9
- Whiteness Index 31 min ([2]; one-step, cumulative treatment 31 min): −59.0
- Whiteness Index 61 min ([2]; one-step, cumulative treatment 61 min): −59.4
- Whiteness Index 30 min [3]: −101.9
- Whiteness Index 60 min [3]: −91.9
- Whiteness Index 90 min [3]: −80.2
- Whiteness Index 120 min [3]: −70.8
- ΔWI ([3]; 0 to 120 min): 55.0
- Whiteness Index 0 min ([3]; before treatment, 100 mM sodium phosphate pH 7.2, average of two substrates): −125.8
- PAA (ppm) [4]: 920 ppm
- Absorbance 405 nm Tooth2 ([4]; 1:10 dilution into ABTS reagent): 1.043
- Absorbance 405 nm Tooth1 ([4]; 1:10 dilution into ABTS reagent, 0.1% PAA or 0.52 μM EZ-7/100 mM triacetin/32.6 mM H2O2): 1.103
- Absorbance 405 nm, 1 min ([5]; peracetic acid at end of 1 min treatment): 2.579
- Absorbance 405 nm, 10 min ([5]; peracetic acid at end of 10 min treatment): 1.863
- Absorbance 405 nm, 30 min ([5]; peracetic acid at end of 30 min treatment): 2.874
